{"source": "patent US7521432B2", "about": "“Compositions and methods for identifying agents which regulate chromosomal stability, gene activation and aging” (priority 2000, dated 2009)", "target": "HST2 (Saccharomyces cerevisiae, UniProt P53686)", "sequence (P53686 whole entry)": "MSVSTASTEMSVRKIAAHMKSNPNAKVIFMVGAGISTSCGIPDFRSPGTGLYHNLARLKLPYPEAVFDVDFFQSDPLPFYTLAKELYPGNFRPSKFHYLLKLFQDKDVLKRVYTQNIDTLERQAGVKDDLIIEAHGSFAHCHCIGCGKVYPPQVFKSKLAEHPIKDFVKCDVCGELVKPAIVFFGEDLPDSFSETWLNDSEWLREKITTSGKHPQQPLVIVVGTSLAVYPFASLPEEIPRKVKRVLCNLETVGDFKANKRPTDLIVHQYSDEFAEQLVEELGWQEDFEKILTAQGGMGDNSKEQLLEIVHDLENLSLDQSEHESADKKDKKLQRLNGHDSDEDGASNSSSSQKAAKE", "assay": "Rapid-reaction single turnover quench-flow analysis", "assay_type": "biochemical, yeast", "conditions": "HST2, excess NAD^+, sub-stoichiometric [^3H]-AcLys14 H3, 22±3° C., pH 7.5, single exponential fit", "from_the_text": "FIGS. 5A-5C are a series of graphs showing that acetate is not a primary product of HST2-catalyzed histone/protein deacetylation. H3 peptide was stoichiometrically acetylated on Lys-14 by the histone acetyltransferase P/CAF and using [^3H]-AcCoA. Monoacetylated [^3H]-AcLys-14 H3 peptide was then purified by HPLC (FIG. 5A) and utilized as a substrate in the HST2 deacetylation reactions (FIG. 5B). Upon complete consumption of [^3H]-AcLys-14 H3 by HST2, all of the original [^3H] from H3 peptide was converted to a labeled product that eluted much later than authentic acetate. Conditions: 375 nM HST2, 175 μM NAD^+, 5 μM [^3H]-Lys14 AcH3, 1 mM DTT, for 1 min at 37° C. prior to quenching with TFA to a final concentration of 1%. FIG. 5C: Single turnover rapid quench-flow analysis. […] Quantification of [^3H]-AcLys14 H3 peptide (diamonds) and the [^3H]-acetate-adduct (circles) was accomplished by liquid scintillation counting of these species separated using reverse phase HPLC. […]\nP/CAF [^3H]-monoacetylation of H3 peptide. […] Every mass spectrum was recorded as the sum of 20 consecutive spectra, each produced by a single pulse of photons. […] The amount of [^3H]-AcLys14 H3 peptide and [^3H]-O-acetyl ADP ribose was determined by liquid scintillation counting of these species separated on reverse phase HPLC. […]"}
{"substance": "O-acetyl-ADP ribose", "values": [{"measurement": "rate constant of acetate-adduct formation", "value": "2.3 ± 0.2", "unit": "s⁻¹"}]}
